Source: PubChem BioAssay AID1845198 (Molecular Pharmacology Branch, DTP, NCI, 2023)
pIC50: −log10 of the molar value.

Test system: 425362-245-T-J1 tumor spheroids, viability % test/control
Assay: Anticancer human tumor 425362-245-T-J1 patient-derived melanoma cell line growth inhibition
Conditions: spheroids with HUVEC and MSC; for pIC50: curve of first compound; for viability, T/C: stronger effect = lower value
Procedure, shortened: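 Complex tumor spheroids combined malignant cells with endothelial cells and mesenchymal stem cells. DNA-damaging drugs and DNA repair inhibitors were tested alone and in combination, at half-log dilutions down from clinical Cmax (top 10 microM if Cmax unknown), 0.25% DMSO final.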
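Further: spheroids exposed to agents for 7 days.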
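Wherever viability, T/C is given: 100% = DMSO vehicle control viability.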

Work on `COc1ccc([C@@H](O)c2cc(-c3ncnc4cc(N5CCOCC5)ccc34)c(F)cc2Cl)nn1` + CC[C@@]1(O)C(=O)OCc2c1cc1n(c2=O)Cc2cc3c(CN(C)C)c(O)ccc3nc2-1 yielded a pIC50 (second compound 0.003 µM) of 5.77, a pIC50 (second compound 0.00949 µM) of 5.95 and a pIC50 (second compound 0.03 µM) greater than 7.50. It also gave a pIC50 (second compound 0.0949 µM) greater than 7.50, a pIC50 (second compound 0.3 µM) greater than 7.50 and a viability, T/C (second compound 0.003 µM, first compound 0.0316 µM) of 103%. The viability, T/C (second compound 0.003 µM, first compound 0.1 µM) was 103%, the viability, T/C (second compound 0.003 µM, first compound 0.316 µM) was 72.1% and the viability, T/C (second compound 0.003 µM, first compound 1 µM) was 60.2%. The viability, T/C (second compound 0.003 µM, first compound 3.16 µM) was 40.6%, the viability, T/C (second compound 0.003 µM, first compound 10 µM) was 17% and the viability, T/C (second compound 0.00949 µM, first compound 0.0316 µM) was 89.7%. The viability, T/C (second compound 0.00949 µM, first compound 0.1 µM) was 78.7%, the viability, T/C (second compound 0.00949 µM, first compound 0.316 µM) was 72.4% and the viability, T/C (second compound 0.00949 µM, first compound 1 µM) was 47.9%. For the same molecule, the viability, T/C (second compound 0.00949 µM, first compound 3.16 µM) was 35.1%, the viability, T/C (second compound 0.00949 µM, first compound 10 µM) was 14.9% and the viability, T/C (second compound 0.03 µM, first compound 0.0316 µM) was 45.5%. It also gave a viability, T/C (second compound 0.03 µM, first compound 0.1 µM) of 45.6%, a viability, T/C (second compound 0.03 µM, first compound 0.316 µM) of 37.8% and a viability, T/C (second compound 0.03 µM, first compound 1 µM) of 24.5%. It also gave a viability, T/C (second compound 0.03 µM, first compound 3.16 µM) of 15.1%, a viability, T/C (second compound 0.03 µM, first compound 10 µM) of 11.2% and a viability, T/C (second compound 0.0949 µM, first compound 0.0316 µM) of 8.69%. For the same molecule, the viability, T/C (second compound 0.0949 µM, first compound 0.1 µM) was 6.08%, the viability, T/C (second compound 0.0949 µM, first compound 0.316 µM) was 5.64% and the viability, T/C (second compound 0.0949 µM, first compound 1 µM) was 5.51%. The viability, T/C (second compound 0.0949 µM, first compound 3.16 µM) was 3.85%, the viability, T/C (second compound 0.0949 µM, first compound 10 µM) was 4.39% and the viability, T/C (second compound 0.3 µM, first compound 0.0316 µM) was 1.88%. For the same molecule, the viability, T/C (second compound 0.3 µM, first compound 0.1 µM) was 1.38%, the viability, T/C (second compound 0.3 µM, first compound 0.316 µM) was 1.37% and the viability, T/C (second compound 0.3 µM, first compound 1 µM) was 1.12%. The viability, T/C (second compound 0.3 µM, first compound 3.16 µM) was 0.65% and the viability, T/C (second compound 0.3 µM, first compound 10 µM) was 0.57%.
With `Cc1sc2c(c1C)C(c1ccc(Cl)cc1)=NC(CC(=O)Nc1ccc(O)cc1)c1nnc(C)n1-2` (stereo not given) + CC[C@@]1(O)C(=O)OCc2c1cc1n(c2=O)Cc2cc3c(CN(C)C)c(O)ccc3nc2-1 the pIC50 (second compound 0.003 µM) was 7.26, the pIC50 (second compound 0.00949 µM) was 7.28 and the pIC50 (second compound 0.03 µM) was greater than 8.02. It also gave a pIC50 (second compound 0.0949 µM) greater than 8.02, a pIC50 (second compound 0.3 µM) greater than 8.02 and a viability, T/C (second compound 0.003 µM, first compound 0.00949 µM) of 90.7%. The viability, T/C (second compound 0.003 µM, first compound 0.03 µM) was 67.6%, the viability, T/C (second compound 0.003 µM, first compound 0.0949 µM) was 35% and the viability, T/C (second compound 0.003 µM, first compound 0.3 µM) was 7.09%. The viability, T/C (second compound 0.003 µM, first compound 0.949 µM) was 2.44%, the viability, T/C (second compound 0.003 µM, first compound 3 µM) was 1.89% and the viability, T/C (second compound 0.00949 µM, first compound 0.00949 µM) was 78.9%. It also gave a viability, T/C (second compound 0.00949 µM, first compound 0.03 µM) of 68.7%, a viability, T/C (second compound 0.00949 µM, first compound 0.0949 µM) of 30% and a viability, T/C (second compound 0.00949 µM, first compound 0.3 µM) of 9.43%. It also gave a viability, T/C (second compound 0.00949 µM, first compound 0.949 µM) of 2.81%, a viability, T/C (second compound 0.00949 µM, first compound 3 µM) of 2.08% and a viability, T/C (second compound 0.03 µM, first compound 0.00949 µM) of 36%. The viability, T/C (second compound 0.03 µM, first compound 0.03 µM) was 24.5%, the viability, T/C (second compound 0.03 µM, first compound 0.0949 µM) was 20.9% and the viability, T/C (second compound 0.03 µM, first compound 0.3 µM) was 8.2%. It also gave a viability, T/C (second compound 0.03 µM, first compound 0.949 µM) of 2.92%, a viability, T/C (second compound 0.03 µM, first compound 3 µM) of 1.49% and a viability, T/C (second compound 0.0949 µM, first compound 0.00949 µM) of 6.49%. It also gave a viability, T/C (second compound 0.0949 µM, first compound 0.03 µM) of 7.18%, a viability, T/C (second compound 0.0949 µM, first compound 0.0949 µM) of 5.96% and a viability, T/C (second compound 0.0949 µM, first compound 0.3 µM) of 2%. It also gave a viability, T/C (second compound 0.0949 µM, first compound 0.949 µM) of 1.05%, a viability, T/C (second compound 0.0949 µM, first compound 3 µM) of 1.03% and a viability, T/C (second compound 0.3 µM, first compound 0.00949 µM) of 2.2%. The viability, T/C (second compound 0.3 µM, first compound 0.03 µM) was 1.82%, the viability, T/C (second compound 0.3 µM, first compound 0.0949 µM) was 1.38% and the viability, T/C (second compound 0.3 µM, first compound 0.3 µM) was 1.33%. The viability, T/C (second compound 0.3 µM, first compound 0.949 µM) was 0.79% and the viability, T/C (second compound 0.3 µM, first compound 3 µM) was 0.59%.
